Source: patent US9629918B2, “Folate receptor alpha binding ligands” (PURDUE RESEARCH FOUNDATION, priority 2012, dated 2017)

Key:
FR-α positive KB cells [1] = target: T1, FR-α positive KB cells (Homo sapiens, UniProt P15328); assay: Flow cytometry analysis of dye conjugate binding to KB cells; assay type: cell-based; settings: 100 nM, 1 h at 37° C
T1 construct: KB cells, a human nasopharyngeal cancer cell line known to over-express FR-α; host or cells: KB cells
Procedure: (§1) KB cells were allowed to form monolayers in a T75 falcon flask for 48 hours in folate-deficient RPMI 1640 culture medium (FDRPMI). The confluent cells were trypsinized and 1×10^6 cells were transferred into each Eppendorf tube and centrifuged. Spent medium was removed and the pelleted cells were resuspended in fresh medium containing either DMTHF-DyLight™ 680 conjugate (100 nM) or folate-DyLight™ 680 conjugate (100 nM), either in the presence or absence of 100-fold molar excess of free folic acid. After incubation for 1 h at 37° C., the cells were washed 3 times with PBS (0.5 ml) and re-suspended in fresh PBS (0.4 ml). Bound fluorescence was analyzed using a flow cytometer (Cytomics F500; Beckman Coulter).

[2] = target: T2, FR-β positive rat peritoneal macrophages (Rattus norvegicus, UniProt D4A4S5); assay: Flow cytometry analysis of dye conjugate binding to rat peritoneal macrophages; assay type: cell-based; settings: 100 nM, 1 h at 37° C
T2 construct: from tissue; host or cells: CD11b+ peritoneal macrophages from Lewis rats
Procedure: as §1
For similar analysis of rat peritoneal macrophages, experimental adjuvant-induced arthritis was induced in Lewis rats according to a previously reported procedure. After 25 days of arthritis induction, the rats were sacrificed by CO2 asphyxiation and peritoneal macrophages were harvested by injecting 60 mL PBS into the peritoneal cavity, and after brief massage of the abdomen, removing the cells using the injection syringe. Peritoneal cells were transferred to Eppendorf tubes, washed and stained as described above, except CD11b+ macrophages that were identified by co-staining with anti-CD 11b-PE (phycoerythrin-labeled antibody to CD11b).

[3] = target: T3, FR-β positive human peripheral blood monocytes (Homo sapiens, UniProt P14207); assay: Flow cytometry analysis of human peripheral blood monocytes; assay type: cell-based; settings: 100 nM, 1 h at 37° C
T3 construct: Human peripheral blood monocytes were isolated from whole human blood by a known procedures; from tissue; host or cells: human peripheral blood mononuclear cells from healthy volunteers (CD11b+ monocytes)
Procedure: Human peripheral blood monocytes were isolated from whole human blood by a known procedures. Briefly, whole human blood in anticoagulant was collected from healthy volunteers following informed consent and the mononuclear cells were separated by Ficoll-Paque centrifugation. Cells were re-suspended in Eppendorf tubes in FDRPMI medium containing either DMTHF-Oregon Green™ 488 (100 nM) or folate-Oregon Green™ 488 (100 nM) plus CD 11b Tricolor to label human monocytes. For competition studies 100-fold molar excess of free folic acid was included in the suspension. After incubation for 1 h at 37° C., the cells were washed 3 times with PBS (0.5 ml) and re-suspended in fresh PBS (0.4 ml). Bound fluorescence was analyzed by flow cytometry as described above.

KB cells = assay: In vitro cytotoxicity assay ([^3H]-thymidine incorporation) in KB cells; assay type: cell-based, human; settings: for IC50: 2 h pulse, additional 66 h incubation
Procedure: The in vitro toxicity of DMTHF-EC-119-TubH, compound 6a, (See FIG. 15) was analyzed in KB cells which were pulsed for 2 h with increasing concentrations of DMTHF-EC-119-TubH in the presence or absence of 100 μM folic acid. After washing to remove unbound conjugate, cells were incubated for an additional 66 h in fresh medium before addition of tritiated thymidine.
(§2) KB, RAW or IGROV cells were seeded in 24-well (100,000 cells/well) Falcon plates and allowed to form monolayers overnight. Spent medium was then replaced with fresh medium (0.5 mL) containing increasing concentrations of drug conjugate in the presence or absence of excess folic acid, and cells were incubated for an additional 2 h at 37° C. Cells were washed 3× with fresh medium (0.5 mL) and incubated in fresh medium (0.5 mL) for another 66 h at 37° C. Spent medium in each well was replaced with fresh medium (0.5 mL) containing [^3H]-thymidine ([…]) and the cells were incubated for additional 4 h at 37° C. to allow [^3H]-thymidine incorporation. Cells were then rinsed with medium (3×0.5 mL) and treated with 5% trichloroacetic acid (0.5 mL) for 10 min at room temperature. After replacing trichloroacetic acid with 0.25 N NaOH (0.5 mL), cells were transferred to individual scintillation vials containing Ecolume scintillation cocktail (3.0 mL) and counted in a liquid scintillation counter. IC50 values were calculated by plotting %[^3H]-thymidine incorporation versus log concentration of DMTHF-EC-119-drug conjugate in GraphPad Prism 4.

RAW 264.7 cells = assay: In vitro cytotoxicity assay ([^3H]-thymidine incorporation) in RAW 264.7 cells; assay type: cell-based; settings: murine macrophage cell line
Procedure: as §2

IGROV cells = assay: In vitro cytotoxicity assay ([^3H]-thymidine incorporation) in IGROV cells; assay type: cell-based, human
Procedure: as §2

FR-α positive KB cells [4] = target: T1, FR-α positive KB cells; assay: Binding affinity of ^99mTc conjugates for KB cells (gamma counting)
Procedure: For evaluation of its affinity for FR-α, increasing concentrations of ^99mTc-DMTHF-chelate were incubated with KB cells, a human nasopharyngeal cancer cell line known to over-express FR-α. The level of bound radioactivity was analyzed using a gamma counter.
KB or CHO-β cells (100,000 cells/well in 500 μl) were plated into 24 well Falcon plates and allowed to form adherent monolayers (ca. 70% confluent) overnight. […] Cells were washed with PBS (3×1.0 mL), after which 0.25 M aqueous NaOH (0.5 ml) was added to dissolve the cells. After 10 minutes incubation, 450 μl from each well were transferred polypropylene tubes and counted for radioactivity in a γ counter (Packard Instrument Company). The binding affinity, Kd, was calculated using GraphPad Prism 4 by plotting cell bound radioactivity versus the concentration of radiotracer added.

xenograft KB tumor = assay: Optical imaging of athymic nude mice bearing KB tumor; assay type: in vivo, mouse; settings: athymic nude mice with KB tumor, 4 h after administration
Procedure: (§3) Radioimages of murine models of human diseases were acquired with a Kodak Imaging Station coupled to a CCD camera operated with Kodak Molecular Imaging Software v 4.0 (Carestream Molecular Imaging). Abdomens were generally shielded with a lead plate in order to mask radioactivity emitted from the kidneys and bladder. The parameters used for radioimaging were: acquisition time=2 min, f-stop=4, focal plane=7, FOV=200, binning=4. For white light imaging, the parameters were: acquisition time=0.05 s, f-stop=11, focal plane=7, FOV=200, with no binning. For fluorescent imaging, abdomens were shielded with black construction paper to block fluorescence emitted from the kidneys and bladder. The parameters used were: acquisition time=30 s, excitation filter of λ=625 nm, emission filter of λ=700 nm, f-stop=4, focal plane=7, FOV=200, and binning=4.
Animals bearing tumors and/or inflammatory diseases were prepared as described above and injected intraperitoneally with DMTHF-DyLight™ 680 or folate-DyLight™ 680 conjugate (4 nmol in 100 μl of PBS). […] To evaluate accumulation of test compounds in specific organs/tissues, animals were dissected and organs/tissues of interest were excised and selected regions of interest were analyzed in the Kodak Imaging Station.

[5] = test system: M109 tumor and DSS induced ulcerative colitis; assay: Optical imaging of Balb/C mice bearing M109 tumor with DSS induced ulcerative colitis; assay type: in vivo, mouse; settings: 4 h after administration
Procedure: as §3
Six week old female Balb/c mice were purchased from Harlan laboratories and maintained on a folate deficient diet (Harlan-Teklad, Wis.). After one week of acclimation, the mice were inoculated subcutaneously on the shoulder with 0.1 mL of M109 tumor cell suspension (1×10^6 cells). Subcutaneous tumor growth was monitored daily and on day 10 post tumor inoculation, 4% dextran sulfate sodium was added to their drinking water for 6 days to induce experimental ulcerative colitis. […]

T1 sequence (P15328 25-234): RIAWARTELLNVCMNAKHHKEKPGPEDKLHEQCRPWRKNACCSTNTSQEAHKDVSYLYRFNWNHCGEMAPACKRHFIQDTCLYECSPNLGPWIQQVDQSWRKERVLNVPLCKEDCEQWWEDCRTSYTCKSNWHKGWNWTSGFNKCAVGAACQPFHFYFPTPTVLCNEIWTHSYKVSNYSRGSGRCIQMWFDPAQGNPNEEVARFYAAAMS
T3 sequence (P14207 17-230): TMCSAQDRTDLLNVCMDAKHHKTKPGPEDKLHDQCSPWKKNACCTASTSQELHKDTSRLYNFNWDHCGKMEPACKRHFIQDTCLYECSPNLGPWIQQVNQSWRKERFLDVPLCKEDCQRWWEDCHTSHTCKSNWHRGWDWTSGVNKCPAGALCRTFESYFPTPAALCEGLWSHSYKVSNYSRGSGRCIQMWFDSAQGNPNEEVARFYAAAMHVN
T2 sequence (D4A4S5 21-252): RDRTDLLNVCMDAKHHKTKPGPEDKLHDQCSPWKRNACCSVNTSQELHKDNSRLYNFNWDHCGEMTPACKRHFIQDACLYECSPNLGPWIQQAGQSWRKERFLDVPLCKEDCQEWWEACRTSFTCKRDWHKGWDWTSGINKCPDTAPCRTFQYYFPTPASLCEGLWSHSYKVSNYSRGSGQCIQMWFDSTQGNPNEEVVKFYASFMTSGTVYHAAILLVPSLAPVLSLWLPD

In the case of CN(CC1CNc2nc(N)[nH]c(=O)c2N1C)c1ccc(C(=O)N[C@@H](CCC(=O)O)C(=O)O)cc1 (stereo partly shown) [DMTHF, N^5,N^10-dimethyl-tetrahydrofolic acid], the “binding to FR-α+ human KB cells” value (FR-α positive KB cells [1]) is reported as “binds FR-α”, the “binding to CD11b+ rat peritoneal macrophages (FR-β)” value [2] is reported as “little affinity for FR-β” and the “shift in the CD11b+ subpopulation of human peripheral blood leucocytes (FR-β)” value [3] is reported as “lack of affinity”.

With CCC1(O)CC2CN(CCc3c([nH]c4ccccc34)[C@](C(=O)OC)(c3cc4c(cc3OC)N(C)[C@@H]3[C@](O)(C(=O)NNC(=O)OCCSSC[C@H](NC(=O)[C@H](CC(=O)O)NC(=O)[C@H](CC(=O)O)NC(=O)[C@H](CCCNC(=N)N)NC(=O)[C@H](CC(=O)O)NC(=O)CC[C@H](NC(=O)c5ccc(N(C)CC6CNc7nc(N)[nH]c(=O)c7N6C)cc5)C(=O)O)C(=O)O)[C@@H](O)[C@@]5(CC)C=CCN6CC[C@@]43[C@H]65)C2)C1 (stereo partly shown) [DMTHF-EC-119-DAVBH, DMTHF-EC-119-desacetylvinblastine hydrazide] the IC50 (KB cells) was 42 nM, the “cytotoxicity in RAW 264.7 cells” value (RAW 264.7 cells) was “did not show any cytotoxicity” and the IC50 (IGROV cells) was ~1000 nM.

With CCCC(=O)OCN(C(=O)[C@@H](NC(=O)[C@H]1CCCCN1C)C(C)CC)[C@H](C[C@@H](OC(C)=O)c1nc(C(=O)N[C@@H](Cc2ccc(O)cc2)C[C@H](C)C(=O)NNC(=O)OCCSSC[C@H](NC(=O)[C@H](CC(=O)O)NC(=O)[C@H](CC(=O)O)NC(=O)[C@H](CCCNC(=N)N)NC(=O)[C@H](CC(=O)O)NC(=O)CC[C@H](NC(=O)c2ccc(N(C)CC3CNc4nc(N)[nH]c(=O)c4N3C)cc2)C(=O)O)C(=O)O)cs1)C(C)C (stereo partly shown) [DMTHF-EC-119-TubH, DMTHF-EC-119-tubulysin B hydrazide] the “effect of excess folic acid on cytotoxicity” value (KB cells; 100 μM folic acid) was “inhibited by excess folic acid”, the IC50 (KB cells) was 41 nM and the IC50 (IGROV cells) was ~120000 nM.

With Nc1nc2ncc(CNc3ccc(C(=O)N[C@H](CCC(=O)NC[C@H](N)C(=O)N[C@@H](CC(=O)O)C(=O)N[C@@H](CS)C(=O)O)C(=O)O)cc3)nc2c(=O)[nH]1 [EC20, pteroic acid-Glu-DAP-Asp-Cys] the “competition of KB cell binding by free folic acid” value (FR-α positive KB cells [4]; 100-fold molar excess of free folic acid) was “competed by excess free folic acid” and the Kd (FR-α positive KB cells [4]; KB cells, 1 hour at 37° C, cell bound radioactivity, read-out: apparent Kd) was 23 nM.

In the case of “N^5,N^10-Dimethyl Tetrahydrofolate-DyLight™ 680 [DMTHF-DyLight™ 680]”, the “binding to FR-α+ human KB cells” value (FR-α positive KB cells [1]) is reported as “binds avidly”, the “binding to CD11b+ rat peritoneal macrophages (FR-β)” value [2] is reported as “no measurable affinity” and the “fluorescent uptake, optical imaging” value (xenograft KB tumor) is reported as “tumor selective uptake”. The “fluorescent uptake, ROI analysis of organs/tissues” value [5] was “accumulated mainly in tumors”.

With “N^5,N^10-Dimethyl tetrahydrofolate-Oregon Green™ 488 [DMTHF-Oregon Green]” the “shift in the CD11b+ subpopulation of human peripheral blood leucocytes (FR-β)” value [3] was “did not”.
